Results as given in ChEMBL document CHEMBL1221283, “Antimicrobial phenolic abietane diterpene from Lycopus europaeus L. (Lamiaceae)” (2010).
≈ marks a conversion by molar mass, not a printed value.

Key:
Format in all cases: functional
Klebsiella pneumoniae [1] = assay: Antibacterial activity against Klebsiella pneumoniae clinical isolate after 24 hrs by broth microdilution method
Escherichia coli [2] = assay: Antibacterial activity against Escherichia coli ATCC 25922 after 24 hrs by broth microdilution method; details: ATCC 25922, 24 h
Candida albicans = assay: Antifungal activity against Candida albicans ATCC 10231 after 48 hrs by broth microdilution method
Aspergillus fumigatus = assay: Antifungal activity against Aspergillus fumigatus isolates after 48 hrs by broth microdilution method
Bacillus subtilis = assay: Antibacterial activity against Bacillus subtilis ATCC 6633 after 24 hrs by broth microdilution method; details: ATCC 6633, 24 h
Penicillium chrysogenum = assay: Antifungal activity against Penicillium chrysogenum isolates after 48 hrs by broth microdilution method
Aspergillus restrictus = assay: Antifungal activity against Aspergillus restrictus isolates after 48 hrs by broth microdilution method
Proteus vulgaris = assay: Antibacterial activity against Proteus vulgaris ATCC 8427 after 24 hrs by broth microdilution method; details: ATCC 8427, 24 h
Escherichia coli [3] = assay: Antibacterial activity against Escherichia coli clinical isolate after 24 hrs by broth microdilution method
Bacillus cereus = assay: Antibacterial activity against Bacillus cereus food isolate after 24 hrs by broth microdilution method
Staphylococcus aureus [4] = assay: Antibacterial activity against Staphylococcus aureus food isolate after 24 hrs by broth microdilution method
Micrococcus luteus = assay: Antibacterial activity against Sarcina lutea food isolate after 24 hrs by broth microdilution method
Staphylococcus aureus [5] = assay: Antibacterial activity against Staphylococcus aureus ATCC 6538 after 24 hrs by broth microdilution method; details: ATCC 6538, 24 h
Salmonella enterica = assay: Antibacterial activity against Salmonella enterica ATCC 13076 after 24 hrs by broth microdilution method; details: ATCC 13076, 24 h
Escherichia coli [6] = assay: Antibacterial activity against Escherichia coli food isolate after 24 hrs by broth microdilution method
Pseudomonas aeruginosa = assay: Antibacterial activity against Pseudomonas aeruginosa ATCC 9027 after 24 hrs by broth microdilution method; details: ATCC 9027, 24 h
Acremonium chrysogenum = assay: Antifungal activity against Acremonium chrysogenum isolates after 48 hrs by broth microdilution method; details: Hapsidospora chrysogena
Staphylococcus aureus [7] = assay: Antibacterial activity against Staphylococcus aureus ATCC 25923 after 24 hrs by broth microdilution method; details: ATCC 25923, 24 h
Klebsiella pneumoniae [8] = assay: Antibacterial activity against Klebsiella pneumoniae ATCC 10031 after 24 hrs by broth microdilution method; details: ATCC 10031, 24 h
Saccharomyces cerevisiae = assay: Antifungal activity against Saccharomyces cerevisiae ATCC 9763 after 48 hrs by broth microdilution method
Trueperella pyogenes = assay: Antibacterial activity against Corynebacterium pyogenes ATCC 19411 after 24 hrs by broth microdilution method; details: ATCC 19411, 24 h

`COC(=O)[C@]1(C)CC[C@H](OC(C)=O)[C@]2(C)c3c(O)cc(C(C)C)cc3[C@H](O)[C@@H](OC(C)=O)[C@H]21` [EUROABIENOL] gave an MBC (Klebsiella pneumoniae [1]) of 716 µg/mL (≈ 1550 µM), an MIC (Klebsiella pneumoniae [1]) of 45 µg/mL (≈ 97.3 µM) and an MBC (Escherichia coli [2]) of 2870 µg/mL (≈ 6200 µM). For the same molecule, the MIC (Escherichia coli [2]) was 179 µg/mL (≈ 387 µM), the MFC (Candida albicans; ATCC 10231, 48 h) was 1430 µg/mL (≈ 3100 µM) and the MIC (Candida albicans; ATCC 10231, 48 h) was 358 µg/mL (≈ 774 µM). It also gave an MFC (Aspergillus fumigatus) of 358 µg/mL (≈ 774 µM), an MIC (Aspergillus fumigatus) of 89 µg/mL (≈ 192 µM) and an MBC (Bacillus subtilis) of 2870 µg/mL (≈ 6200 µM). The MIC (Bacillus subtilis) was 179 µg/mL (≈ 387 µM), the MFC (Penicillium chrysogenum) was 2870 µg/mL (≈ 6200 µM) and the MIC (Penicillium chrysogenum) was 1430 µg/mL (≈ 3100 µM). The MFC (Aspergillus restrictus) was 2870 µg/mL (≈ 6200 µM), the MIC (Aspergillus restrictus) was 1430 µg/mL (≈ 3100 µM) and the MBC (Proteus vulgaris) was 5740 µg/mL (≈ 12400 µM). For the same molecule, the MIC (Proteus vulgaris) was 179 µg/mL (≈ 387 µM), the MBC (Escherichia coli [3]) was 716 µg/mL (≈ 1550 µM) and the MIC (Escherichia coli [3]) was 358 µg/mL (≈ 774 µM). The MBC (Bacillus cereus) was 716 µg/mL (≈ 1550 µM), the MIC (Bacillus cereus) was 89 µg/mL (≈ 192 µM) and the MBC (Staphylococcus aureus [4]) was 716 µg/mL (≈ 1550 µM). For the same molecule, the MIC (Staphylococcus aureus [4]) was 22 µg/mL (≈ 47.6 µM), the MBC (Micrococcus luteus) was 179 µg/mL (≈ 387 µM) and the MIC (Micrococcus luteus) was 45 µg/mL (≈ 97.3 µM). For the same molecule, the MBC (Staphylococcus aureus [5]) was 2870 µg/mL (≈ 6200 µM), the MIC (Staphylococcus aureus [5]) was 22 µg/mL (≈ 47.6 µM) and the MBC (Salmonella enterica) was 1430 µg/mL (≈ 3100 µM). It also gave an MIC (Salmonella enterica) of 179 µg/mL (≈ 387 µM), an MBC (Escherichia coli [6]) of 5740 µg/mL (≈ 12400 µM) and an MIC (Escherichia coli [6]) of 716 µg/mL (≈ 1550 µM). It also gave an MBC (Pseudomonas aeruginosa) of 2870 µg/mL (≈ 6200 µM), an MIC (Pseudomonas aeruginosa) of 358 µg/mL (≈ 774 µM) and an MFC (Acremonium chrysogenum) of over 5740 µg/mL. The MIC (Acremonium chrysogenum) was over 5740 µg/mL, the MBC (Staphylococcus aureus [7]) was 5740 µg/mL (≈ 12400 µM) and the MIC (Staphylococcus aureus [7]) was 179 µg/mL (≈ 387 µM). The MBC (Klebsiella pneumoniae [8]) was 1430 µg/mL (≈ 3100 µM), the MIC (Klebsiella pneumoniae [8]) was 179 µg/mL (≈ 387 µM) and the MFC (Saccharomyces cerevisiae; ATCC 9763, 48 h) was 89 µg/mL (≈ 192 µM). The MIC (Saccharomyces cerevisiae; ATCC 9763, 48 h) was 89 µg/mL (≈ 192 µM), the MBC (Trueperella pyogenes) was 1430 µg/mL (≈ 3100 µM) and the MIC (Trueperella pyogenes) was 179 µg/mL (≈ 387 µM).
Molecule `CN(C)[C@@H]1C(O)=C(C(N)=O)C(=O)[C@@]2(O)C(O)=C3C(=O)c4c(O)cccc4[C@@](C)(O)[C@H]3C[C@@H]12` [TETRACYCLINE] has an MIC (Klebsiella pneumoniae [1]) of 0.39 µg/mL (≈ 0.878 µM), an MIC (Escherichia coli [2]) of 1.56 µg/mL (≈ 3.51 µM) and an MIC (Bacillus subtilis) of 0.195 µg/mL (≈ 0.439 µM). For the same molecule, the MIC (Proteus vulgaris) was 0.39 µg/mL (≈ 0.878 µM), the MIC (Escherichia coli [3]) was 0.195 µg/mL (≈ 0.439 µM) and the MIC (Bacillus cereus) was 0.195 µg/mL (≈ 0.439 µM). The MIC (Staphylococcus aureus [4]) was 0.098 µg/mL (≈ 0.221 µM), the MIC (Micrococcus luteus) was 0.39 µg/mL (≈ 0.878 µM) and the MIC (Staphylococcus aureus [5]) was 0.098 µg/mL (≈ 0.221 µM). The MIC (Salmonella enterica) was 0.195 µg/mL (≈ 0.439 µM), the MIC (Escherichia coli [6]) was 1.56 µg/mL (≈ 3.51 µM) and the MIC (Pseudomonas aeruginosa) was 1.56 µg/mL (≈ 3.51 µM). For the same molecule, the MIC (Staphylococcus aureus [7]) was 0.098 µg/mL (≈ 0.221 µM), the MIC (Klebsiella pneumoniae [8]) was 0.39 µg/mL (≈ 0.878 µM) and the MIC (Trueperella pyogenes) was 1.56 µg/mL (≈ 3.51 µM).
NYSTATIN gave an MIC (Candida albicans) of 6.25 µg/mL, an MIC (Aspergillus fumigatus) of 0.195 µg/mL and an MIC (Penicillium chrysogenum) of 0.39 µg/mL. For the same molecule, the MIC (Aspergillus restrictus) was 0.781 µg/mL, the MIC (Acremonium chrysogenum) was 0.195 µg/mL and the MIC (Saccharomyces cerevisiae) was 12.5 µg/mL.
